In patent US8153818B2, “Triazolyl phenyl benzenesulfonamides” (ChemoCentryx, Inc., priority 2006, dated 2012):

The compounds below were run against T1, CCR9 (Homo sapiens, UniProt P51686) (assay: CCR9 activity in one of the chemotaxis, binding or calcium mobilization assays). Conditions: assay not specified per compound.
T1 construct: chemokine expressing cells (such as THP-1 cells for CCR2 assay or MOLT-4 cells for CCR9 assay); host or cells: MOLT-4
T1 sequence (P51686 1-369): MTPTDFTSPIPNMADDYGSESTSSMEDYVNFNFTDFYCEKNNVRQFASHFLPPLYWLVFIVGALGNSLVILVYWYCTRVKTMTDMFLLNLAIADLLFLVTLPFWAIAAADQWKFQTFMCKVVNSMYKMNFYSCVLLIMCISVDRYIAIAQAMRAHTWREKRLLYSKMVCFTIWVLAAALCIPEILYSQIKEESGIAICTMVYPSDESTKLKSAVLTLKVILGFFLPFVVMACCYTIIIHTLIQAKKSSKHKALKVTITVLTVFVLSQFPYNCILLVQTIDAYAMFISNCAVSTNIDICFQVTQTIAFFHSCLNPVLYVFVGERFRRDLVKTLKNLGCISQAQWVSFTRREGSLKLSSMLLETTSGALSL
Format: cell-based
Procedure: Conventional migration assay was used to determine the efficacy of potential receptor antagonists in blocking migration mediated through chemokines (such as CCR2 or CCR9). This assay was routinely performed using the ChemoTX® microchamber system with a 5-μm pore-sized polycarbonate membrane. To begin such an assay, chemokine expressing cells (such as THP-1 cells for CCR2 assay or MOLT-4 cells for CCR9 assay) were harvested by centrifugation of cell suspension at 1000 RPM on a GS-6R Beckman centrifuge. The cell pellet was resuspended in chemotaxis buffer (HBSS with 0.1% BSA) at 10×10^6 cells/mL for CCR2 assay (5×10^6 cells/mL for CCR9 assay). Test compounds at desired concentrations were prepared from 10 mM stock solutions by serial dilutions in chemotaxis buffer. An equal volume of cells and compounds were mixed and incubated at room temperature for 15 minutes. Afterwards, 20 μL of the mixture was transferred onto the porous membrane of a migration microchamber, with 29 μL of chemokine ligand (0.1 nM chemokine MCP-1 protein for CCR2 assay or […] chemokine TECK protein for CCR9 assay) placed at the lower chamber. Following an incubation at 37° C. (90-minute for CCR2; 150-minute for CCR9), during which cells migrated against the chemokine gradient, the assay was terminated by removing the cell drops from atop the filter. To quantify cells migrated across the membrane, 5 μL of 7×CyQUANT® solution was added to each well in the lower chamber, and the fluorescence signal measured on a Spectrafluor Plus fluorescence plate reader (TECAN, Durham, N.C.). The degree of inhibition was determined by comparing migration signals between compound-treated and untreated cells. IC50 calculation was further performed by non-linear squares regression analysis using Graphpad Prism (Graphpad Software, San Diego, Calif.).
Calcium flux assay measures an increase in intracellular calcium following ligand-induced receptor activation. In the screen of chemokine antagonists, it was used as a secondary assay carried out on a FLIPR® machine (Molecular Devices, Mountain View, Calif.). To begin an assay, chemokine expressing cells (such as THP-1 cells for CCR2 assay or MOLT-4 cells for CCR9 assay) were harvested by centrifugation of cell suspension, and resuspended to 1.5×10^6 cells/mL in HBSS (with 1% fetal calf serum). Cells were then labeled with a calcium indicator dye Fluo-4 AM for 45 minutes at 37° C. with gentle shaking. Following incubation, cells were pelletted, washed once with HBSS and resuspended in the same buffer at a density of 1.6×10^6 cells/mL. One hundred microliters of labeled cells were mixed with 10 μL of test compound at the appropriate concentrations on an assay plate. Chemokine protein (MCP-1 at a final concentration of 0.1 nM for CCR2 assay or TECK at a final concentration of 25 nM for CCR9 assay) to activate the receptor. The degree of inhibition was determined by comparing calcium signals between compound-treated and untreated cells. IC50 calculations were further performed by non-linear squares regression analysis using Graphpad Prism (Graphpad Software, San Diego, Calif.). […]
In the tables below, structures and activity are provided for representative compounds described herein. Activity is provided as follows for either or both of the chemotaxis assay and/or calcium mobilization assays, described above.

Row | SMILES | IC50
1 | CC(C)n1cnnc1-c1cc(Cl)ccc1NS(=O)(=O)c1ccc(C(C)(C)C)cc1 [Compound 1, 4-tert-butyl-N-(4-chloro-2-(4-isopropyl-4H-1,2,4-triazol-3-yl)phenyl)benzenesulfonamide] | < 1000 nM
2 | CC(C)(C)c1ccc(S(=O)(=O)Nc2ccc(Cl)cc2-c2nncn2-c2ccccc2)cc1 [Compound 2, 4-tert-butyl-N-(4-chloro-2-(4-phenyl-4H-1,2,4-triazol-3-yl)phenyl)benzenesulfonamide] | < 1000 nM
3 | Cc1nnc(-c2cc(Cl)ccc2NS(=O)(=O)c2ccc(C(C)(C)C)cc2)n1C(C)C [Compound 3, 4-tert-butyl-N-(4-chloro-2-(4-isopropyl-5-methyl-4H-1,2,4-triazol-3-yl)phenyl)benzenesulfonamide] | < 1000 nM
4 | Cc1nnc(-c2cc(Cl)ccc2NS(=O)(=O)c2ccc(C(C)(C)C)cc2)n1-c1ccccc1 [Compound 4, 4-tert-butyl-N-(4-chloro-2-(5-methyl-4-phenyl-4H-1,2,4-triazol-3-yl)phenyl)benzenesulfonamide] | < 1000 nM
5 | CCn1c(C)nnc1-c1cc(Cl)ccc1NS(=O)(=O)c1ccc(C(C)(C)C)cc1 [Compound 5, 4-tert-butyl-N-(4-chloro-2-(4-ethyl-5-methyl-4H-1,2,4-triazol-3-yl)phenyl)benzenesulfonamide] | < 1000 nM
6 | Cc1nnc(-c2cc(Cl)ccc2NS(=O)(=O)c2ccc(C(C)(C)C)cc2)n1C [Compound 6, 4-tert-butyl-N-(4-chloro-2-(4,5-dimethyl-4H-1,2,4-triazol-3-yl)phenyl)benzenesulfonamide] | < 1000 nM
7 | Cc1nnc(-c2cc(Cl)ccc2NS(=O)(=O)c2ccc(C(C)(C)C)cc2)n1C1CC1 [Compound 7, 4-tert-butyl-N-(4-chloro-2-(4-cyclopropyl-5-methyl-4H-1,2,4-triazol-3-yl)phenyl)benzenesulfonamide] | < 1000 nM
8 | CC(C)c1nnc(-c2cc(Cl)ccc2NS(=O)(=O)c2ccc(C(C)(C)C)cc2)n1C [Compound 8, 4-tert-butyl-N-(4-chloro-2-(5-isopropyl-4-methyl-4H-1,2,4-triazol-3-yl)phenyl)benzenesulfonamide] | < 1000 nM
9 | Cn1c(-c2cc(Cl)ccc2NS(=O)(=O)c2ccc(C(C)(C)C)cc2)nnc1C1CCOCC1 [Compound 9] | < 1000 nM
10 | COCc1nnc(-c2cc(Cl)ccc2NS(=O)(=O)c2ccc(C(C)(C)C)cc2)n1C [Compound 10, 4-tert-butyl-N-(4-chloro-2-(5-(methoxymethyl)-4-methyl-4H-1,2,4-triazol-3-yl)phenyl)benzenesulfonamide] | < 1000 nM
11 | CC(C)c1nnc(-c2cc(Cl)ccc2NS(=O)(=O)c2ccc(C(C)(C)C)cc2)n1C(C)C [Compound 11, 4-tert-butyl-N-(4-chloro-2-(4,5-diisopropyl-4H-1,2,4-triazol-3-yl)phenyl)benzenesulfonamide] | < 1000 nM
12 | Cc1nnc(-c2cc(Cl)ccc2NS(=O)(=O)c2ccc(C(C)(C)C)cc2)n1C1CCOCC1 [Compound 12] | < 1000 nM
13 | CCc1nnc(-c2cc(Cl)ccc2NS(=O)(=O)c2ccc(C(C)(C)C)cc2)n1C(C)C [Compound 13, 4-tert-butyl-N-(4-chloro-2-(5-ethyl-4-isopropyl-4H-1,2,4-triazol-3-yl)phenyl)benzenesulfonamide] | < 1000 nM
14 | Cc1nnc(-c2cc(Cl)ccc2NS(=O)(=O)c2ccc(C(C)(C)C)cc2)n1C1CCCC1 [Compound 14, 4-tert-butyl-N-(4-chloro-2-(4-cyclopentyl-5-methyl-4H-1,2,4-triazol-3-yl)phenyl)benzenesulfonamide] | < 1000 nM
15 | Cc1nnc(-c2cc(Cl)ccc2NS(=O)(=O)c2ccc(OC(C)C)cc2)n1C(C)C [Compound 15, N-(4-chloro-2-(4-isopropyl-5-methyl-4H-1,2,4-triazol-3-yl)phenyl)-4-isopropoxybenzenesulfonamide] | < 1000 nM
16 | Cc1nnc(-c2cc(Cl)ccc2NS(=O)(=O)c2ccc(C(C)(C)C)cc2)n1-c1cc[nH]n1 [Compound 16] | < 1000 nM

Second part, the compound after the results:

Row | IC50 | SMILES
17 | < 1000 nM | CCn1c(C)nnc1-c1cc(Cl)ccc1NS(=O)(=O)c1ccc(OC(C)C)cc1 [Compound 17, N-(4-chloro-2-(4-ethyl-5-methyl-4H-1,2,4-triazol-3-yl)phenyl)-4-isopropoxybenzenesulfonamide]
18 | < 1000 nM | CC(C)n1cnnc1-c1ccc(Cl)cc1NS(=O)(=O)c1ccc(C(C)(C)C)cc1 [Compound 18, 4-tert-butyl-N-(5-chloro-2-(4-isopropyl-4H-1,2,4-triazol-3-yl)phenyl)benzenesulfonamide]
19 | < 1000 nM | Cc1nnc(-c2cc(Cl)ccc2NS(=O)(=O)c2ccc(C(C)(C)C)cc2)n1CC(C)C [Compound 19, 4-tert-butyl-N-(4-chloro-2-(4-isobutyl-5-methyl-4H-1,2,4-triazol-3-yl)phenyl)benzenesulfonamide]
20 | < 1000 nM | Cc1nnc(-c2cc(Cl)ccc2NS(=O)(=O)c2ccc(C(C)(C)C)cc2)n1C1CCNCC1 [Compound 20]
21 | < 1000 nM | COCc1nnc(-c2cc(Cl)ccc2NS(=O)(=O)c2ccc(C(C)(C)C)cc2)n1C1CCOCC1 [Compound 21, 4-tert-butyl-N-(4-chloro-2-(5-(methoxymethyl)-4-(tetrahydro-2H-pyran-4-yl)-4H-1,2,4-triazol-3-yl)phenyl)benzenesulfonamide]
22 | < 1000 nM | CCn1cnnc1-c1cc(F)c(F)cc1NS(=O)(=O)c1ccc(C(C)(C)C)cc1 [Compound 22, 4-tert-butyl-N-(2-(4-ethyl-4H-1,2,4-triazol-3-yl)-4,5-difluorophenyl)benzenesulfonamide]
23 | < 1000 nM | CCn1cnnc1-c1ccc(F)cc1NS(=O)(=O)c1ccc(C(C)(C)C)cc1 [Compound 23, 4-tert-butyl-N-(2-(4-ethyl-4H-1,2,4-triazol-3-yl)-5-fluorophenyl)benzenesulfonamide]
24 | < 1000 nM | Cc1nnc(-c2ccc(F)cc2NS(=O)(=O)c2ccc(C(C)(C)C)cc2)n1C(C)C [Compound 24, 4-tert-butyl-N-(5-fluoro-2-(4-isopropyl-5-methyl-4H-1,2,4-triazol-3-yl)phenyl)benzenesulfonamide]
25 | < 1000 nM | CCn1cnnc1-c1c(NS(=O)(=O)c2ccc(C(C)(C)C)cc2)ccc(Cl)c1F [Compound 25, 4-tert-butyl-N-(4-chloro-2-(4-ethyl-4H-1,2,4-triazol-3-yl)-3-fluorophenyl)benzenesulfonamide]
26 | < 1000 nM | Cc1nnc(-c2cc(Cl)ccc2NS(=O)(=O)c2ccc(C(C)(C)C)cc2)n1[C@@H](C)CO [Compound 26]
27 | < 1000 nM | CC(=O)NCCn1c(C)nnc1-c1cc(Cl)ccc1NS(=O)(=O)c1ccc(C(C)(C)C)cc1 [Compound 27, N-(2-(3-(2-(4-tert-butylphenylsulfonamido)-5-chlorophenyl)-5-methyl-4H-1,2,4-triazol-4-yl)ethyl)acetamide]
28 | < 1000 nM | Cc1nnc(-c2c(NS(=O)(=O)c3ccc(C(C)(C)C)cc3)ccc(Cl)c2F)n1C [Compound 28, 4-tert-butyl-N-(4-chloro-2-(4,5-dimethyl-4H-1,2,4-triazol-3-yl)-3-fluorophenyl)benzenesulfonamide]
29 | < 1000 nM | CCn1c(C)nnc1-c1c(NS(=O)(=O)c2ccc(C(C)(C)C)cc2)ccc(Cl)c1F [Compound 29, 4-tert-butyl-N-(4-chloro-2-(4-ethyl-5-methyl-4H-1,2,4-triazol-3-yl)-3-fluorophenyl)benzenesulfonamide]
30 | < 1000 nM | Cn1cnnc1-c1cc(Cl)ccc1NS(=O)(=O)c1ccc(C(C)(C)C)cc1 [Compound 30, 4-tert-butyl-N-(4-chloro-2-(4-methyl-4H-1,2,4-triazol-3-yl)phenyl)benzenesulfonamide]
